Data on ten compounds can be found in ChEMBL document CHEMBL1129891, “Synthesis and cytotoxic activity of alkylidene- and alkyl-substituted camptothecins” (Bioorg Med Chem Lett, 1997).

The term IC50 denotes the concentration that gives 50% inhibition. Read a low IC50 as higher potency.

One experiment deals with T1, DNA topoisomerase 1 (Homo sapiens, UniProt P11387).
T1 sequence (P11387 whole entry): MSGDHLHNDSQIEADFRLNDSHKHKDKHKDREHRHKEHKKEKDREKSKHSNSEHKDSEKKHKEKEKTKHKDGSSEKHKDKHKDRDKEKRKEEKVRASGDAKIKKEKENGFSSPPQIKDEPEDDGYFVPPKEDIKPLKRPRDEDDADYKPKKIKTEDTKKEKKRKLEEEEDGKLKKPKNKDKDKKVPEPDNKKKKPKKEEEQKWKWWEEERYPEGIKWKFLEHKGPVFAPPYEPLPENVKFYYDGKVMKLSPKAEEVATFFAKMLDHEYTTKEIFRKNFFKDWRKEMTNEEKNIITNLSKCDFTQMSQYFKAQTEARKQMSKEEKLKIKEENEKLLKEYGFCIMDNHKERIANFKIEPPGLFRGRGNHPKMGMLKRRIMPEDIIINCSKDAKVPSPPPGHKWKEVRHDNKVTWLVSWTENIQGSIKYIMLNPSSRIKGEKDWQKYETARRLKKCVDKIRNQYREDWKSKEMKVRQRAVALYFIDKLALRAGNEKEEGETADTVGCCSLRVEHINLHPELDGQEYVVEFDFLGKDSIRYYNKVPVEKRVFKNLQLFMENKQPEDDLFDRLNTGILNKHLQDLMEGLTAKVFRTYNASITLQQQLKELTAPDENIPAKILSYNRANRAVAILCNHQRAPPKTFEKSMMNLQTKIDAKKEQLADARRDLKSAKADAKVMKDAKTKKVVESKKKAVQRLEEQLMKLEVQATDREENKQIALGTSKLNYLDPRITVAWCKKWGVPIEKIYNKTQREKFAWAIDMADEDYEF
Nature of the experiment: Concentration required to inhibit 50% relaxation of 250 ng of SV40 DNA obtained with 0.5 I.U topoisomerase I at 37 degrees C for 30 min.

The next experiment has as its system L1210. Kind of experiment: Concentration required to inhibit 50% of cell growth in L1210 murine leukemia cell line after 48 hr continuous treatment. The format is functional, cell-based. The settings on record: Mus musculus, L1210, 48 h.

Molecules are shown by their SMILES.

`C=Cc1cccc2nc3c(cc12)Cn1c-3cc2c(c1=O)COC(=O)[C@]2(O)CC`: the IC50 at DNA topoisomerase 1 came out at 4200 nM; with L1210, 7.5 nM.
The compound `CC[C@@]1(O)C(=O)OCc2c1cc1n(c2=O)Cc2cc3c(N)cccc3nc2-1` [9-AMINOCAMPTOTHECIN] came in with an IC50 at DNA topoisomerase 1 of 1800 nM.
Turning to `CC[C@@]1(O)C(=O)OCc2c1cc1n(c2=O)Cc2cc3c(CCC(=O)OC)cccc3nc2-1`, the values for the IC50 against DNA topoisomerase 1 and in the experiment on L1210 were 41800 nM and 6.2 nM, respectively.
As to `CC[C@@]1(O)C(=O)OCc2c1cc1n(c2=O)Cc2cc3cc(/C=C/C(=O)OC)ccc3nc2-1`, the IC50 against DNA topoisomerase 1 was more than 100000 nM; in the experiment on L1210, 62.3 nM.
The matching figures for `CC[C@@]1(O)C(=O)OCc2c1cc1n(c2=O)Cc2cc3c(/C=C/c4ccccc4)cccc3nc2-1`: more than 100000 nM and 15.8 nM.
As for `CC[C@@]1(O)C(=O)OCc2c1cc1n(c2=O)Cc2cc3c(/C=C/C(=O)OC)cccc3nc2-1`, the IC50 at DNA topoisomerase 1 is 6700 nM; in the experiment with L1210, 7.6 nM.
As to `CC[C@@]1(O)C(=O)OCc2c1cc1n(c2=O)Cc2cc3c(CCc4ccccc4)cccc3nc2-1`, the IC50 against DNA topoisomerase 1 is more than 100000 nM; in the experiment on L1210, 16.3 nM.
On to `CC[C@@]1(O)C(=O)OCc2c1cc1n(c2=O)Cc2cc3c(/C=C/C(N)=O)cccc3nc2-1`, for which the IC50 at DNA topoisomerase 1 came out at 3200 nM; in the experiment with L1210, 121 nM.
In the same order, the values of `CC[C@@]1(O)C(=O)OCc2c1cc1n(c2=O)Cc2cc3c(/C=C(\NC(C)=O)C(=O)OC)cccc3nc2-1` are 31900 nM and 1180 nM.
For `CC[C@@]1(O)C(=O)OCc2c1cc1n(c2=O)Cc2cc3c(CC(NC(C)=O)C(=O)OC)cccc3nc2-1` (some centres undefined), the figures for the IC50 against DNA topoisomerase 1 and in the experiment on L1210 were 11300 nM and 183 nM, respectively.
